Source: PubChem BioAssay AID806 (SRMLSC, 2007)
Activity calls are given as the source filed them. No rule for the calls is given here.

Test system: virus-infected cells, CPE inhibition, dose response
Assay: PubChem AID 806
Conditions: for EC90: measured here: EC90 CPE inhibition; for CC50: measured here: cytotoxicity, cell viability IC50

Structure (SMILES)	EC50	EC90	CC50
COc1ccc(-n2ncc3c(N4CCCc5ccccc54)ncnc32)cc1	> 60 µM (inactive)	> 60 µM	> 60 µM
O=C1CC(C(=O)Nc2ccccc2)C2(CCCCC2)O1 (centres undefined)	> 60 µM (inactive)	> 60 µM	> 60 µM
Cc1cc(NC(=O)CSc2nnc(CNc3ccc(F)cc3)n2C2CCCCC2)no1	61.8 µM (inactive)	> 60 µM	> 60 µM
O=C(Nc1nc(-c2ccccc2)cs1)C1CCCCN1S(=O)(=O)c1ccccc1 (centres undefined)	> 60 µM (inactive)	> 60 µM	> 60 µM
CN(C)S(=O)(=O)c1ccc(C(=O)NCc2ccccc2)cc1	> 60 µM (inactive)	> 60 µM	> 60 µM
CCCCOc1ccc(C(=O)C(CN2CCOCC2)c2ccccc2)cc1 (centres undefined)	> 60 µM (inactive)	> 60 µM	> 60 µM
O=C(CSc1ccc2nnc(-c3ccncc3)n2n1)NCc1ccco1	> 60 µM (inactive)	> 60 µM	> 60 µM
CC(=O)c1cccc(NC(=O)CCS(=O)(=O)c2cccc3nsnc23)c1	> 60 µM (inactive)	> 60 µM	> 60 µM
COc1ccc(C2=NOC(C(=O)Nc3cc(C)nn3-c3ccccc3)C2)cc1OC (centres undefined)	> 60 µM (inactive)	> 60 µM	> 60 µM
O=C(NC1CCS(=O)(=O)C1)C1CCCCN1S(=O)(=O)c1ccc(Cl)cc1 (centres undefined)	> 60 µM (inactive)	> 60 µM	> 60 µM
Cc1ccc(NC(=S)C2=C(O)c3sccc3N(C)S2(=O)=O)cc1	30.3 µM (inactive)	> 60 µM	> 60 µM
O=C(c1cc2ccccc2o1)n1nnc2ccccc21	> 60 µM (inactive)	> 60 µM	> 60 µM
CSc1nnc(-c2ccc(Cl)cc2Cl)o1	48.5 µM (inactive)	> 60 µM	> 60 µM
O=C(c1ccco1)N1CCn2c1nc1ccccc12	> 60 µM (inactive)	> 60 µM	> 60 µM
CCCCSc1nnc(-c2ccc(C)cc2)o1	> 60 µM (inactive)	> 60 µM	> 60 µM
O=C(c1cnn2c(C(F)F)cc(C3CC3)nc12)N1CCOCC1	> 60 µM (inactive)	> 60 µM	> 60 µM
COc1ccc(OC)c(C2=NOC(C(=O)Nc3cc(C)nn3-c3ccccc3)C2)c1 (centres undefined)	> 60 µM (inactive)	> 60 µM	> 60 µM
Cc1cc(NC(=O)c2noc3c2CCc2ccccc2-3)no1	> 60 µM (inactive)	> 60 µM	> 60 µM
O=C(CSc1nnc2sc3ccccc3n12)NCc1ccco1	–	> 60 µM	> 60 µM
N#CCCN1CCn2c1nc1ccccc12	> 60 µM (inactive)	> 60 µM	> 60 µM
Cc1cccc(NC(=O)c2cc3ccccc3o2)c1	> 60 µM (inactive)	> 60 µM	> 60 µM
Cc1ccc(OCC(=O)Nc2ccc(-c3nnc(-c4ccco4)o3)cc2)cc1	> 60 µM (inactive)	> 60 µM	> 60 µM
COc1ccc(NC(=O)C2CC(=O)OC23CCOC(C)(C)C3)cc1 (centres undefined)	> 60 µM (inactive)	> 60 µM	> 60 µM

Structure (SMILES)	EC50	EC90	CC50
COc1cccc(C2=NOC(C(=O)Nc3cc(C)nn3-c3ccccc3)C2)c1OC (centres undefined)	> 60 µM (inactive)	> 60 µM	> 60 µM
COc1ccc2c(c1)CCc1c(C(=O)N3CCCC3)noc1-2	> 60 µM (inactive)	> 60 µM	> 60 µM
O=C(CCS(=O)(=O)c1cccc2nsnc12)NCc1ccccc1	> 60 µM (inactive)	> 60 µM	> 60 µM
CCOc1ccccc1NC(=O)C1CCCCN1S(=O)(=O)c1ccc(F)cc1 (centres undefined)	> 60 µM (inactive)	> 60 µM	> 60 µM
CCOc1ccc(NC(=O)CCS(=O)(=O)c2cccc3nsnc23)cc1	> 60 µM (inactive)	> 60 µM	> 60 µM
COc1ccccc1Cn1c(=O)[nH]c2cccnc21	> 60 µM (inactive)	> 60 µM	> 60 µM
O=C(c1cnn2c(C(F)(F)F)cc(-c3ccc(Br)cc3)nc12)N1CCOCC1	> 60 µM (inactive)	> 60 µM	> 60 µM
NC(=O)c1c(NC(=O)CSc2nnc(Cc3ccccc3)n2Cc2ccco2)sc2c1CCC2	> 60 µM (inactive)	> 60 µM	> 60 µM
COc1ccc(OC)c(-n2c(SCC(=O)NCc3ccco3)nnc2-c2c[nH]c3ccccc23)c1	> 60 µM (inactive)	> 60 µM	> 60 µM
O=Nc1c(O)n(Cc2ccc(Cl)cc2)c2ccccc12	> 60 µM (inactive)	> 60 µM	> 60 µM
CC(C)c1cccc(C(C)C)c1OCCn1ccnc1	> 60 µM (inactive)	> 60 µM	> 60 µM
COCCNC(=O)C(c1ccccc1C)N(CCOC)C(=O)Cn1nnc2ccccc21 (centres undefined)	> 60 µM (inactive)	> 60 µM	> 60 µM
Cc1noc(C)c1CSc1nc2sc(C)c(C)c2c(=O)n1C1CCCC1	> 60 µM (inactive)	> 60 µM	10 µM
COc1cccc(Nc2ncnc3c2cnn3-c2cccc(C)c2)c1	> 60 µM (inactive)	> 60 µM	> 60 µM
Cc1nc2c(C(=O)N3CCOCC3)cnn2c(C)c1Cc1ccc(Cl)cc1	> 60 µM (inactive)	> 60 µM	> 60 µM
COc1ccc(C(=O)C(CN2CCOCC2)c2ccccc2)cc1F (centres undefined)	> 60 µM (inactive)	> 60 µM	> 60 µM
O=C1/C(=C\c2ccco2)SC(=S)N1Cc1ccccc1	> 60 µM (inactive)	> 60 µM	6.46 µM
CCOc1ccccc1NC(=O)c1ccc(NC(=O)c2ccco2)cc1	> 60 µM (inactive)	> 60 µM	> 60 µM
CC(=O)Nc1ccc(Nc2ncnc3c2cnn3-c2ccc(C)cc2C)cc1	> 60 µM (inactive)	> 60 µM	> 60 µM
O=C(CCS(=O)(=O)c1cccc2nsnc12)NCc1ccccc1Cl	> 60 µM (inactive)	> 60 µM	> 60 µM
O=C(CCS(=O)(=O)c1cccc2nsnc12)NC1CCCCCC1	> 60 µM (inactive)	> 60 µM	> 60 µM
CCCCN(C(=O)Cn1nnc2ccccc21)C(C(=O)NCCOC)c1ccc(OC)cc1OC (centres undefined)	> 60 µM (inactive)	> 60 µM	> 60 µM
NC(=O)CSc1nnc2sc3ccccc3n12	> 60 µM (inactive)	> 60 µM	> 60 µM

Structure (SMILES)	EC50	EC90	CC50
COc1ccccc1CNC(=O)c1c(O)c2cc(OC)c(OC)cc2[nH]c1=O	> 60 µM (inactive)	> 60 µM	> 60 µM
COc1c(C(C)C)cc(NC(C)=O)cc1C(C)C	> 60 µM (inactive)	> 60 µM	> 60 µM
O=C(Nc1cccc(O)c1)c1noc2c1CCc1ccccc1-2	> 60 µM (inactive)	> 60 µM	> 60 µM
CCc1c(C)nc2[nH]nc(-c3ccccc3)n2c1=O	> 60 µM (inactive)	> 60 µM	> 60 µM
COc1cc(OC)c(C2=NOC(C(=O)Nc3cc(C)nn3-c3ccccc3)C2)cc1Cl (centres undefined)	> 60 µM (inactive)	> 60 µM	> 60 µM
O=C1c2ccccc2-c2onc3ccc(Oc4ccccc4)c1c23	> 60 µM (inactive)	> 60 µM	17.7 µM
Cc1cc(NC(=O)C2CC(c3ccc(F)cc3)=NO2)n(-c2ccccc2)n1 (centres undefined)	> 60 µM (inactive)	> 60 µM	> 60 µM
CS(=O)(=O)c1nc(-c2cccs2)cc(C(F)(F)F)n1	> 60 µM (inactive)	> 60 µM	30.1 µM
Cc1ccc(C)c(Cc2c(C)nc3c(C(=O)N4CCOCC4)cnn3c2C)c1	> 60 µM (inactive)	> 60 µM	> 60 µM
COc1ccc(C)cc1NC(=O)C1CC(=O)OC12CCCCC2 (centres undefined)	> 60 µM (inactive)	> 60 µM	> 60 µM
COc1ccccc1NC(=O)CS(=O)(=O)c1cccc2nsnc12	> 60 µM (inactive)	> 60 µM	> 60 µM
O=C1CC(C(=O)Nc2cccc3ccccc23)C2(CCCC2)O1 (centres undefined)	> 60 µM (inactive)	> 60 µM	> 60 µM
Clc1ccc(Nc2ncnc3c2cnn3-c2ccccc2)cc1	> 60 µM (inactive)	> 60 µM	> 60 µM
COc1ccc(NS(=O)(=O)c2ccc(OC)c(N(C)S(=O)(=O)c3ccc(Cl)cc3)c2)cc1	–	> 60 µM	22.9 µM
CCOc1ccc(NC(=O)C2CCCCN2S(=O)(=O)c2ccccc2)cc1 (centres undefined)	> 60 µM (inactive)	> 60 µM	> 60 µM
CC(C)(C)OC(=O)NCCc1nnc(SCc2ccccc2Cl)o1	> 60 µM (inactive)	> 60 µM	> 60 µM
Cc1c(C(=O)Nc2ccncc2)oc2ccccc12	> 60 µM (inactive)	> 60 µM	> 60 µM
CCCCN(C(=O)Cn1nnc2ccccc21)C(C(=O)NCCOC)c1ccccc1 (centres undefined)	> 60 µM (inactive)	> 60 µM	> 60 µM
CC(C)NC(=O)CSc1nnc2sc3ccccc3n12	> 60 µM (inactive)	> 60 µM	> 60 µM
O=C(c1cnn2c(C(F)(F)F)cc(-c3ccccc3)nc12)N1CCOCC1	> 60 µM (inactive)	> 60 µM	> 60 µM
CC(c1ccco1)N(C(=O)COc1ccc(Cl)cc1Cl)c1ccccn1 (centres undefined)	> 60 µM (inactive)	> 60 µM	> 60 µM
NC1C2CN(c3nc4c(cc3F)c(=O)c(C(=O)O)cn4-c3ccc(F)cc3F)CC12 (centres undefined)	–	> 60 µM	45.1 µM
COCCCNC(=O)C1CCCCN1S(=O)(=O)c1ccc(F)cc1 (centres undefined)	> 60 µM (inactive)	> 60 µM	> 60 µM
